# Target: PglF (Campylobacter jejuni, UniProt Q0P9D4)
# Experiment: X-ray crystal structure, […] Å
# Assay type: binding
# Details: ternary complex with NAD(H); 10 mM UDP, pH 6.0; active site
# PglF, sequence (Q0P9D4 244-590): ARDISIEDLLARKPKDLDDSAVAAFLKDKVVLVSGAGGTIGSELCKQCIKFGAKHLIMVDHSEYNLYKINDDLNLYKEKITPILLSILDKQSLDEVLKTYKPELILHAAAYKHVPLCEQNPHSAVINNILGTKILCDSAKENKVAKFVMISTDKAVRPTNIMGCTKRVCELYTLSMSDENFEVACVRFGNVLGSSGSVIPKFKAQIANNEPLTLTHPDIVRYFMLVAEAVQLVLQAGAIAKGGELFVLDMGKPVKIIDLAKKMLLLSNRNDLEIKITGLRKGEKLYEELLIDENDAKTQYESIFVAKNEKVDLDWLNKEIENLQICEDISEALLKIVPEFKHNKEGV
compound,measurement,value
O=c1ccn([C@@H]2O[C@H](COP(=O)(O)OP(=O)(O)O)[C@@H](O)[C@H]2O)c(=O)[nH]1 [UDP],"X-ray crystal structure, 2.0 Å",The first structure determined in this investigation was that of the PglF/NAD(H)/UDP ternary complex
